Measured values taken from patent US20260137665A1, “COMBINATION THERAPIES FOR THE TREATMENT OF CANCER” (AADI Bioscience, Inc., priority 2022, published 2026).

Tests used:
[1] = test system: NCI-H2030 human non-small cell lung cancer xenografts; assay: Anti-tumor activity in mice bearing NCI-H2030 tumor xenografts; type: in vivo; settings: for Response Rate % (Tumor Regression >−30%): NCI-H2030-xenografted mice, doses per Table A1; for tumor growth inhibition (TGI): NCI-H2030 xenografts, female athymic mice, n=3/group, doses and routes per Table A1
Source text: (NCI-H2030 mutation profile: KRAS^G12C, STK11^E317*, TP53^G262V.) The KRAS G12C mutation, which is common in NSCLC, leads to constitutive activation of the tumor growth-promoting RAS/MAPK signaling pathway. STK11 is a negative regulator of mTOR signaling. The mTOR pathway is often activated in patients with KRAS mutation and contributes to adaptive resistance to KRAS inhibitors.
Female athymic mice were implanted with human NCI-H2030 NSCLC cells in both flanks.

[2] = test system: NCI-H2122 human non-small cell lung cancer xenografts; assay: Anti-tumor activity in mice bearing NCI-H2122 tumor xenografts; type: in vivo; settings: for Response Rate % (Tumor Regression >−30%): NCI-H2122-xenografted mice, doses per Table D
Experimental: Next, a similar set of experiments was performed in mice bearing human NCI-H2122 tumor xenografts. NCI-H2122 is a human NSCLC […] cancer cell line that harbors KRAS^G12C and STK11 null (loss of function) mutations.

[3] = test system: UMUC3 human bladder cancer xenografts; assay: Anti-tumor activity in mice bearing UMUC3 tumor xenografts
Source text: UMUC3 is a human transitional cell carcinoma (bladder cancer) cell line harboring KRAS^G12C and PTEN null mutations. PTEN is a negative regulator or mTOR activity (UMUC3 mutation profile: KRAS^G12C, PTEN^null, TP53^F113C, ATM^Q2800fs, CDKN2A^null, UGT2B17^null.)
Briefly, female athymic mice were implanted with NCI-H2122 cells in their right flanks. When tumor volume reached approximately 100-150 mm^3, animals were randomly divided into nine groups (n=6/group), and administered with saline (control), a single agent drug, or a drug combination shown in Table F below according to the administration routes, dosages and administration frequencies shown in Table F below.

Row | Structure (SMILES) | Response Rate % (Tumor Regression >−30%) [1] | tumor growth inhibition (TGI) [1] | Response Rate % (Tumor Regression >−30%) [2] | tumor growth inhibition (TGI) ([2]; NCI-H2122 xenografts, female athymic mice, n=5/group, doses and routes per Table D) | mice tumor-free during the study ([3]; UMUC3-xenografted mice, n=6/group) | mice surviving to the end of the study (Day 42) ([3]; UMUC3-xenografted mice, n=6/group, doses per Table F) | Response Rate % (Tumor Regression >−30%) ([3]; UMUC3-xenografted mice, doses per Table F) | tumor growth inhibition (TGI) ([3]; UMUC3 xenografts, female athymic mice, n=6/group, doses and routes per Table F)
1 | C=CC(=O)N1CCN(c2nc(=O)n(-c3c(C)ccnc3C(C)C)c3nc(-c4c(O)cccc4F)c(F)cc23)[C@@H](C)C1 (atropisomer, axis not shown; (M)) [sotorasib, 6-Fluoro-7-(2-fluoro-6-hydroxyphenyl)-(1M)-1-[4-methyl-2-(propan-2-yl)pyridin-3-yl]-4-[(2S)-2-methyl-4-(prop-2-enoyl)piperazin-1-yl]pyrido[2,3-d]pyrimidin-2(1H)-one] | 0% | 20% | 0% | 79% | 0/6 | 0/6 | 0% | 100%
2 | CO[C@H]1C[C@@H]2CC[C@@H](C)[C@@](O)(O2)C(=O)C(=O)N2CCCC[C@H]2C(=O)O[C@H]([C@H](C)C[C@@H]2CC[C@@H](OCCO)[C@H](OC)C2)CC(=O)[C@H](C)/C=C(\C)[C@@H](O)[C@@H](OC)C(=O)[C@H](C)C[C@H](C)/C=C/C=C/C=C/1C [everolimus] | 0% | 22% | 10% |  |  |  |  | 
